According to patent EP2958918B1, “DIHYDROPTERIDINONES II” (Boehringer Ingelheim International GmbH, priority 2013, dated 2014):
pIC50: −log10 of the molar value.

How the values were obtained:
[1] = system: Aβ42; assay: Aβ42 cellular assay: inhibition of Aβ42 production in H4 neuroglioma cells stably expressing human APP695, electrochemiluminescence (Meso Scale Discovery) on supernatant; type: cell-based; details: 22 hours incubation, tested range 30 µM to 0.1 nM
Procedure: (§1) Cells were plated out to near confluency. The compounds to be tested were received as 10 mM stocks in 100% DMSO. A dilution series was initially generated in 100% DMSO and then diluted 200-fold in cell culture media such that the tested concentration range was 30 µM to 0.1 nM and the final DMSO concentration was 0.5%. The diluted compounds were incubated with the cells for 22 hours in an incubator at 37°C and 5% CO2. Aβ42 as well as Aβ total levels were then measured post-incubation from the supernatant of the cells. Aβ42 levels were determined using a specific electrochemiluminescence assay provided by Meso Scale Discovery (Catalog # L21CA-1) according to the manufacturer's protocol. Aβ total levels were likewise determined using a specific electrochemiluminescence assay provided by Meso Scale Discovery (Catalog # L21ZA-1) according to the manufacturer's protocol.
(§2) In order to absolutely define the described compounds as modulators of y-Secretase as opposed to simply inhibitors of γ-Secretase, measurements of not only Aβ42 but also Aβ total are performed.

[2] = system: Aβ total; assay: Aβ total cellular assay: inhibition of Aβ total production in H4 neuroglioma cells stably expressing human APP695, electrochemiluminescence (Meso Scale Discovery) on supernatant; used for the ratio Aβ total IC50 / Aβ42 IC50; type: cell-based; details: higher ratio = more specific inhibition of Aβ42
Procedure: as §1, §2

SMILES | pIC50 [1] | Ratio Aß(total)/Aß42 [2]
COc1cc(Nc2ncc3c(n2)N(C)C2(CCOC2)C(=O)N3c2ccc(C(F)(F)F)cn2)ccc1-n1cnc(C)c1 (centres unmarked) [Example 48] | 6.41 | 22
COc1cc(Nc2ncc3c(n2)N(C)C2(CC4CCC2C4)C(=O)N3C)cnc1-n1cnc(C)c1 (centres unmarked) [Example 49] | 7.02 | 69
COc1cc(Nc2ncc3c(n2)N(C)C2(CC2)C(=O)N3CC(F)(F)F)cnc1-n1cnc(C)c1 [Example 50] | 6.69 | > 147
COc1cc(Nc2ncc3c(n2)N(C)C2(CC2)C(=O)N3CC(F)(F)F)ccc1-n1ccnc1C [Example 51] | 7.23 | 126
COc1cc(Nc2nc(CC(F)(F)F)c3c(n2)N(C)C2(CC2)C(=O)N3C)ccc1-n1cnc(C)c1 [Example 55] | 7.12 | 103

Now from value to compound, other results behind:

pIC50 [1] | SMILES | Ratio Aß(total)/Aß42 [2]
7.01 | COc1cc(Nc2ncc3c(n2)N(C)C2(CC2)C(=O)N3c2ccc(F)cc2)ccc1-n1cnc(C)c1 [Example 46] | > 306
6.72 | COc1cc(Nc2ncc3c(n2)N(C)C2(CC2)C(=O)N3C2COC2)ccc1-n1cnc(C)c1 [Example 47] | 98
6.96 | COc1cc(Nc2ncc3c(n2)N(C)C2(CC2)C(=O)N3CC(F)F)ccc1-n1cnc(C)c1 [Example 52] | 61
7.40 | COc1cc(Nc2ncc3c(n2)N(C)C2(CCCC2)C(=O)N3C)ccc1-n1cnc(C)c1 [Example 53] | 132
7.66 | COc1cc(Nc2ncc3c(n2)N(C)C2(CCCC2)C(=O)N3CC(F)(F)F)ccc1-n1cnc(C)c1 [Example 54] | 116
